The record followed here is PMC12037410, “Pharmacological targeting of BMAL1 modulates circadian and immune pathways” (Nature Chemical Biology, 2025).

Molecules are shown by their SMILES. Residues, ends and D or L forms follow the SMILES beside them.

The target in one assay is BMAL1 (Homo sapiens, UniProt O00327). Set-up: PASB domain (residues 338–449); Protein thermal shift (PTS) fragment screen on recombinant human BMAL1(PASB), shift of melting temperature. As to conditions: dTmB; binder.
Sequence of BMAL1 (O00327 338-449): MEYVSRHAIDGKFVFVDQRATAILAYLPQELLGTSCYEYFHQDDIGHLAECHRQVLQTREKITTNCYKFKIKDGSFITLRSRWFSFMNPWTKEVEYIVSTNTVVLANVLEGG
With `CC(=O)C1CCNCC1` [Prestw-Frag-3756, Compound 333], the “Bmal1(PASB) dTmB” value is -0.19 °C.
For `CCN(Cc1ccccc1)c1ccccc1` [Prestw-Frag-1121, Compound 375], the “Bmal1(PASB) dTmB” value is -1.19 °C.
For `C[C@H](N)C(=O)N1CCC[C@H]1C(=O)O` [Prestw-Frag-1275, Compound 264] (H-Ala-Pro-OH), the “Bmal1(PASB) dTmB” value was -0.70 °C.
On to `Cc1c(O)c2ccccc2oc1=O` [Prestw-Frag-1130, Compound 324], for which the “Bmal1(PASB) dTmB” value turned out to be 0.05 °C.
As to `Cc1nccn1CCO` [Prestw-Frag-1517, Compound 258], the “Bmal1(PASB) dTmB” value was -0.20 °C.
As for `CNCCc1ccc(OC)c(OC)c1` [Prestw-Frag-1446, Compound 257], the “Bmal1(PASB) dTmB” value was -0.19 °C.
Turning to `COC(=O)C(O)c1ccccc1` (stereo not drawn) [Prestw-Frag-2423, Compound 176], the “Bmal1(PASB) dTmB” value is 0.02 °C.
`Cc1cc(-c2ccccc2)nnc1N` [Prestw-Frag-1003, Compound 243]: the “Bmal1(PASB) dTmB” value is -0.88 °C.
With `Cc1cccc(C)c1NC(=O)CN1CCNCC1` [Prestw-Frag-1996, Compound 391], the “Bmal1(PASB) dTmB” value was -0.66 °C.
In the case of `COc1ccc2c(c1)CCC(C(=O)O)C2` (stereo not drawn) [Prestw-Frag-3739, Compound 163], the “Bmal1(PASB) dTmB” value was found to be 0.52 °C.
For `Cn1c(N)nc2ccccc21` [Prestw-Frag-3740, Compound 377], the “Bmal1(PASB) dTmB” value is -0.10 °C.
`CC(C)CC(N)C1(c2ccc(Cl)cc2)CCC1` (stereo not drawn) [Prestw-Frag-1566, Compound 459]: the “Bmal1(PASB) dTmB” value is -2.54 °C.
Same read-out and setting: the result for `O=C(O)CC(c1ccccc1)c1ccccc1` [Prestw-Frag-3250, Compound 130] reads -0.49 °C; that for `O=C(O)CCCc1ccc(-c2ccccc2)cc1` [Prestw-Frag-1767, Compound 455], -2.43 °C.
`O=C1CCc2ccc(O)cc2N1` [Prestw-Frag-2854, Compound 80]: the “Bmal1(PASB) dTmB” value is -0.98 °C.
`CCCCc1nc(Cl)c(CO)[nH]1` [Prestw-Frag-3114, Compound 336]: the “Bmal1(PASB) dTmB” value was determined as 0.07 °C.
For `CCN(CC)C(=O)CC#N` [Prestw-Frag-3731, Compound 282], the “Bmal1(PASB) dTmB” value was -0.04 °C.
Turning to `NC(=O)c1ccc2[nH]ccc2c1` [Prestw-Frag-3336, Compound 449], the “Bmal1(PASB) dTmB” value was -0.81 °C.
On to `NC(=O)[C@H](N)c1ccccc1` [Prestw-Frag-1099, Compound 271], for which the “Bmal1(PASB) dTmB” value is -0.22 °C.
On to `Cc1cc(N)no1` [Prestw-Frag-1647, Compound 292], for which the “Bmal1(PASB) dTmB” value was -0.16 °C.
With `COc1ccc(OC)c(C(C)O)c1` (stereo not drawn) [Prestw-Frag-2208, Compound 283], the “Bmal1(PASB) dTmB” value was -0.43 °C.
On the same count and under the same terms, to `Cc1cccc(O)c1` [Prestw-Frag-1791, Compound 216] belongs -0.80 °C.
As to `c1cnc(N2CCNCC2)nc1` [Prestw-Frag-1398, Compound 399], the “Bmal1(PASB) dTmB” value was -0.21 °C.
Take `c1ccc2nccnc2c1` [Prestw-Frag-3033, Compound 315]: the “Bmal1(PASB) dTmB” value came out at 0.23 °C.
On to `COc1ccc2cc[nH]c2c1` [Prestw-Frag-1372, Compound 392], for which the “Bmal1(PASB) dTmB” value came out at 0.28 °C.
With `CC(O)(C(=O)O)c1ccccc1` (stereo not drawn) [Prestw-Frag-3717, Compound 103], the “Bmal1(PASB) dTmB” value is -0.01 °C.
Still for that read-out and setting: the result for `CCCOc1ccc(C(=O)OCC)cc1N` [Prestw-Frag-2724, Compound 416] reads -1.52 °C.
Regarding `O=C1CCc2ccccc2N1` [Prestw-Frag-2464, Compound 16], the “Bmal1(PASB) dTmB” value was -2.13 °C.
For the molecule `O=C(O)CCc1ccc(Cl)cc1` [Prestw-Frag-1126, Compound 340], the “Bmal1(PASB) dTmB” value is -0.19 °C.
As to `ClC1(Cl)CC1c1ccccc1` (stereo not drawn) [Prestw-Frag-2566, Compound 328], the “Bmal1(PASB) dTmB” value is 0.06 °C.
Still for that read-out and setting: the result for `c1ccc(Cn2ccnc2)cc1` [Prestw-Frag-2620, Compound 329] reads -0.49 °C; that for `CC(=O)c1ccc(N2CCNCC2)c(F)c1` [Prestw-Frag-1094, Compound 141], -0.42 °C.
As for `O=C(O)c1cccnc1Nc1ccccc1` [Prestw-Frag-1191, Compound 63], the “Bmal1(PASB) dTmB” value turned out to be 0.02 °C.
`CC(=O)c1ccccc1O` [Prestw-Frag-1884, Compound 211]: the “Bmal1(PASB) dTmB” value is -0.17 °C.
As for `c1cc(N2CCNCC2)ncn1` [Prestw-Frag-3729, Compound 289], the “Bmal1(PASB) dTmB” value was -0.01 °C.
The same measure, in the same setting: the result for `O=c1[nH]cncc1-c1ccccc1` [Prestw-Frag-3734, Compound 254] reads -0.26 °C.
As to `c1ccc2c(c1)OCO2` [Prestw-Frag-2299, Compound 175], the “Bmal1(PASB) dTmB” value is -0.52 °C.
`COc1ccc(C(C)=O)c(O)c1` [Prestw-Frag-2701, Compound 250]: the “Bmal1(PASB) dTmB” value is 0.06 °C.
Take `CC(=O)c1ccc2c(c1)OCO2` [Prestw-Frag-3686, Compound 57]: the “Bmal1(PASB) dTmB” value is -1.06 °C.
Still for that read-out and setting: to `O=C1NCN(c2ccccc2)C12CCNCC2` [Prestw-Frag-1869, Compound 339] belongs -0.72 °C; to `Cc1nc(-c2ccccc2)c(-c2ccccc2)o1` [Prestw-Frag-2695, Compound 471], -2.25 °C.
For `OC(c1ccccc1)c1ccccc1` [Prestw-Frag-1122, Compound 454], the “Bmal1(PASB) dTmB” value was -1.61 °C.
Still for that read-out and setting: to `O=C1c2nccnc2C(O)N1c1ccc(Cl)cn1` (stereo not drawn) [Prestw-Frag-3046, Compound 93] belongs -0.98 °C.
For `CNCCC(c1ccccc1)c1ccccc1` [Prestw-Frag-1772, Compound 410], the “Bmal1(PASB) dTmB” value is -1.48 °C.
The same measure, in the same setting: the result for `COc1ccc(CCN)cc1O` [Prestw-Frag-1064, Compound 320] reads -0.32 °C.
As for `NCC(CC(=O)O)c1ccccc1` (stereo not drawn) [Prestw-Frag-1125, Compound 234], the “Bmal1(PASB) dTmB” value is -0.06 °C.
On the same count and under the same terms, the result for `OCCn1cncn1` [Prestw-Frag-3101, Compound 350] reads 0.19 °C; that for `CC(=O)c1ccc(O)cc1O` [Prestw-Frag-2506, Compound 162], 0.21 °C.
On the same count and under the same terms, to `C(=C\c1ccccc1)/CN1CCNCC1` [Prestw-Frag-1163, Compound 295] belongs -0.92 °C.
For `O=c1[nH]snc1N1CCOCC1` [Prestw-Frag-2562, Compound 37], the “Bmal1(PASB) dTmB” value was -0.14 °C.
On to `Oc1cccc2cccnc12` [Prestw-Frag-2592, Compound 119], for which the “Bmal1(PASB) dTmB” value is -0.26 °C.
Regarding `OCC1CCCNC1` (stereo not drawn) [Prestw-Frag-3728, Compound 390], the “Bmal1(PASB) dTmB” value was -0.26 °C.
As for `Nc1nc2ccccc2n1Cc1ccc(F)cc1` [Prestw-Frag-1050, Compound 460], the “Bmal1(PASB) dTmB” value is -1.64 °C.
Turning to `O=C(CCCN1CCNCC1)c1ccc(F)cc1` [Prestw-Frag-3426, Compound 470], the “Bmal1(PASB) dTmB” value was -0.60 °C.
Take `CCN(CC)CCOC(=O)c1ccccc1` [Prestw-Frag-1735, Compound 406]: the “Bmal1(PASB) dTmB” value was -0.48 °C.
Still for that read-out and setting: the result for `c1ccc(C(c2ccccc2)n2cncn2)cc1` [Prestw-Frag-2645, Compound 443] reads -2.46 °C.

The assay is the same for the next values; noted with them: dTmB; binder; Bmal1(PASB) dTmB.
As for `CC1=NN(c2ccccc2)C(=O)C1` [Prestw-Frag-1028, Compound 259], the “Bmal1(PASB) dTmB” value worked out at 0.76 °C.
